In publication PMC5224920, “Assessing the mechanism and therapeutic potential of modulators of the human Mediator complex-associated protein kinases” (eLife, 2016):

Tested on: 12 single or co-culture in vitro tissue models of primary cells
Assay: Culture/co-culture cell model panel, extracellular biomarkers (DiscoveRx); on CCL2/MCP-1: reference of the scale not given here; on CD38: reference of the scale not given here; on CD40: reference of the scale not given here; on CD69: reference of the scale not given here; on CXCL8/IL-8: reference of the scale not given here; on CXCL9/MIG: reference of the scale not given here; on IL-1alpha: reference of the scale not given here; on M-CSF: reference of the scale not given here; on PBMC Cytotoxicity: reference of the scale not given here
Format: cell-based, human
[1] = /Mphg Huvec+macrophages, 1.00E0 nM
[2] = /Mphg Huvec+macrophages, 1.00E1 nM
[3] = /Mphg Huvec+macrophages, 1.00E2 nM
[4] = /Mphg Huvec+macrophages, 1.00E3 nM
[5] = /Mphg Huvec+macrophages, 1.00E4 nM

CN1c2ccc(-c3cncc(Cl)c3N3CCC4(CC3)CNC(=O)O4)cc2CS1(=O)=O [CMPD2]
Collagen III (/HDFNo, 1.00E3 nM): 0.037 | CCL2/MCP-1 (/HDFNo, 1.00E4 nM): 0.068 | CD54/ICAM-1 (/HDFNo, 1.00E4 nM): 0.057 | CD106/VCAM-1 (/HDFNo, 1.00E4 nM): 0.067 | Collagen I (/HDFNo, 1.00E4 nM): 0.071 | Collagen III (/HDFNo, 1.00E4 nM): 0.073 | CCL2/MCP-1 [1]: 0.022 | CCL3/MIP-1alpha [1]: 0.000424 | CD40 [1]: 0.00851 | CD69 [1]: 0.038 | CD106/VCAM-1 [1]: 0.069 | CXCL8/IL-8 [1]: 0.053 | IL-1alpha [1]: 0.041 | M-CSF [1]: -0.019 | SRB [1]: -0.007 | SRB-Mphg [1]: 0.018 | sIL-10 [1]: 0.074 | CCL2/MCP-1 [2]: -0.032 | CCL3/MIP-1alpha [2]: -0.016 | CD40 [2]: -0.000836 | CD69 [2]: 0.026 | CD106/VCAM-1 [2]: 0.052 | CXCL8/IL-8 [2]: -0.00092 | IL-1alpha [2]: 0.023 | M-CSF [2]: -0.033 | SRB [2]: -0.013 | SRB-Mphg [2]: 0.006 | sIL-10 [2]: 0.045 | CCL2/MCP-1 [3]: -0.044 | CCL3/MIP-1alpha [3]: -0.018 | CD40 [3]: 0.014 | CD69 [3]: -0.029 | CD106/VCAM-1 [3]: 0.050 | CXCL8/IL-8 [3]: 0.00849 | IL-1alpha [3]: 0.033 | M-CSF [3]: -0.037 | SRB [3]: -0.017 | SRB-Mphg [3]: 0.018 | sIL-10 [3]: -0.065 | CCL2/MCP-1 [4]: -0.085 | CCL3/MIP-1alpha [4]: -0.034 | CD40 [4]: 0.00225 | CD69 [4]: 0.036 | CD106/VCAM-1 [4]: 0.021 | CXCL8/IL-8 [4]: 0.012 | IL-1alpha [4]: 0.019 | M-CSF [4]: -0.046 | SRB [4]: -0.017 | SRB-Mphg [4]: 0.008 | sIL-10 [4]: -0.137 | CCL2/MCP-1 [5]: -0.107 | CCL3/MIP-1alpha [5]: -0.064 | CD40 [5]: -0.00011 | CD69 [5]: 0.061 | CD106/VCAM-1 [5]: 0.027 | CXCL8/IL-8 [5]: 0.023 | IL-1alpha [5]: 0.024 | M-CSF [5]: -0.054 | SRB [5]: -0.021 | SRB-Mphg [5]: -0.007 | sIL-10 [5]: -0.266 | CCL2/MCP-1 (/TH2, 1.00E0 nM): 0.046 | CCL26/Eotaxin-3 (/TH2, 1.00E0 nM): -0.081 | CD38 (/TH2, 1.00E0 nM): -0.015 | CD40 (/TH2, 1.00E0 nM): -0.063 | CD69 (/TH2, 1.00E0 nM): -0.031 | CD87/uPAR (/TH2, 1.00E0 nM): -0.079 | CD106/VCAM-1 (/TH2, 1.00E0 nM): 0.031 | CXCL8/IL-8 (/TH2, 1.00E0 nM): 0.026 | CXCL9/MIG (/TH2, 1.00E0 nM): 0.021 | Collagen IV (/TH2, 1.00E0 nM): -0.017 | PBMC Cytotoxicity (/TH2, 1.00E0 nM): -0.023 | SRB (/TH2, 1.00E0 nM): -0.037 | sIL-17A (/TH2, 1.00E0 nM): 0.106 | sIL-17F (/TH2, 1.00E0 nM): -0.026 | CCL2/MCP-1 (/TH2, 1.00E1 nM): -0.013 | CCL26/Eotaxin-3 (/TH2, 1.00E1 nM): -0.160 | CD38 (/TH2, 1.00E1 nM): -0.040 | CD40 (/TH2, 1.00E1 nM): -0.104 | CD69 (/TH2, 1.00E1 nM): -0.024 | CD87/uPAR (/TH2, 1.00E1 nM): -0.129 | CD106/VCAM-1 (/TH2, 1.00E1 nM): 0.033 | CXCL8/IL-8 (/TH2, 1.00E1 nM): -0.063 | CXCL9/MIG (/TH2, 1.00E1 nM): 0.013 | Collagen IV (/TH2, 1.00E1 nM): -0.009 | PBMC Cytotoxicity (/TH2, 1.00E1 nM): -0.008 | SRB (/TH2, 1.00E1 nM): -0.062 | sIL-17A (/TH2, 1.00E1 nM): 0.100 | sIL-17F (/TH2, 1.00E1 nM): -0.047 | CCL2/MCP-1 (/TH2, 1.00E2 nM): -0.044 | CCL26/Eotaxin-3 (/TH2, 1.00E2 nM): -0.160 | CD38 (/TH2, 1.00E2 nM): -0.008 | CD40 (/TH2, 1.00E2 nM): -0.119 | CD69 (/TH2, 1.00E2 nM): -0.012 | CD87/uPAR (/TH2, 1.00E2 nM): -0.098 | CD106/VCAM-1 (/TH2, 1.00E2 nM): 0.035 | CXCL8/IL-8 (/TH2, 1.00E2 nM): -0.029 | CXCL9/MIG (/TH2, 1.00E2 nM): 0.013 | Collagen IV (/TH2, 1.00E2 nM): 0.016 | PBMC Cytotoxicity (/TH2, 1.00E2 nM): -0.007 | SRB (/TH2, 1.00E2 nM): -0.066 | sIL-17A (/TH2, 1.00E2 nM): 0.165 | sIL-17F (/TH2, 1.00E2 nM): 0.173 | CCL2/MCP-1 (/TH2, 1.00E3 nM): -0.082 | CCL26/Eotaxin-3 (/TH2, 1.00E3 nM): -0.177 | CD38 (/TH2, 1.00E3 nM): -0.024 | CD40 (/TH2, 1.00E3 nM): -0.095 | CD69 (/TH2, 1.00E3 nM): -0.010 | CD87/uPAR (/TH2, 1.00E3 nM): -0.180 | CD106/VCAM-1 (/TH2, 1.00E3 nM): 0.017 | CXCL8/IL-8 (/TH2, 1.00E3 nM): -0.045 | CXCL9/MIG (/TH2, 1.00E3 nM): 0.011 | Collagen IV (/TH2, 1.00E3 nM): -0.006 | PBMC Cytotoxicity (/TH2, 1.00E3 nM): -0.011 | SRB (/TH2, 1.00E3 nM): -0.062 | sIL-17A (/TH2, 1.00E3 nM): 0.168 | sIL-17F (/TH2, 1.00E3 nM): -0.013 | CCL2/MCP-1 (/TH2, 1.00E4 nM): -0.093 | CCL26/Eotaxin-3 (/TH2, 1.00E4 nM): -0.166 | CD38 (/TH2, 1.00E4 nM): -0.035 | CD40 (/TH2, 1.00E4 nM): -0.115 | CD69 (/TH2, 1.00E4 nM): -0.043 | CD106/VCAM-1 (/TH2, 1.00E4 nM): 0.00327 | CXCL8/IL-8 (/TH2, 1.00E4 nM): -0.042 | CXCL9/MIG (/TH2, 1.00E4 nM): 0.000193 | Collagen IV (/TH2, 1.00E4 nM): -0.031 | PBMC Cytotoxicity (/TH2, 1.00E4 nM): -0.017 | SRB (/TH2, 1.00E4 nM): -0.065 | sIL-17A (/TH2, 1.00E4 nM): 0.146 | sIL-17F (/TH2, 1.00E4 nM): -0.041 | CCL26/Eotaxin-3 (BENo, 1.00E0 nM): 0.071 | CD54/ICAM-1 (BENo, 1.00E0 nM): 0.057 | CD87/uPAR (BENo, 1.00E0 nM): 0.050 | CXCL8/IL-8 (BENo, 1.00E0 nM): 0.030 | CXCL9/MIG (BENo, 1.00E0 nM): 0.080 | CXCL10/IP-10 (BENo, 1.00E0 nM): 0.112 | CXCL11/I-TAC (BENo, 1.00E0 nM): 0.105 | EGFR (BENo, 1.00E0 nM): 0.075 | HLA-DR (BENo, 1.00E0 nM): 0.134 | IL-1alpha (BENo, 1.00E0 nM): 0.066 | Keratin 8/18 (BENo, 1.00E0 nM): 0.059 | MMP-1 (BENo, 1.00E0 nM): 0.060 | MMP-9 (BENo, 1.00E0 nM): -0.001 | PAI-I (BENo, 1.00E0 nM): -0.018 | SRB (BENo, 1.00E0 nM): 0.00452 | tPA (BENo, 1.00E0 nM): 0.028 | uPA (BENo, 1.00E0 nM): 0.026 | CCL26/Eotaxin-3 (BENo, 1.00E1 nM): 0.036 | CD54/ICAM-1 (BENo, 1.00E1 nM): 0.042 | CD87/uPAR (BENo, 1.00E1 nM): 0.062 | CXCL8/IL-8 (BENo, 1.00E1 nM): 0.077 | CXCL9/MIG (BENo, 1.00E1 nM): 0.047 | CXCL10/IP-10 (BENo, 1.00E1 nM): 0.119 | CXCL11/I-TAC (BENo, 1.00E1 nM): 0.092 | EGFR (BENo, 1.00E1 nM): 0.077 | HLA-DR (BENo, 1.00E1 nM): 0.115 | IL-1alpha (BENo, 1.00E1 nM): 0.048 | Keratin 8/18 (BENo, 1.00E1 nM): 0.047 | MMP-1 (BENo, 1.00E1 nM): 0.063 | MMP-9 (BENo, 1.00E1 nM): -0.010 | PAI-I (BENo, 1.00E1 nM): -0.050 | SRB (BENo, 1.00E1 nM): 0.00136 | tPA (BENo, 1.00E1 nM): 0.026 | uPA (BENo, 1.00E1 nM): 0.026 | CCL26/Eotaxin-3 (BENo, 1.00E2 nM): 0.038 | CD54/ICAM-1 (BENo, 1.00E2 nM): -0.034 | CD87/uPAR (BENo, 1.00E2 nM): 0.110 | CXCL8/IL-8 (BENo, 1.00E2 nM): 0.017 | CXCL9/MIG (BENo, 1.00E2 nM): 0.084 | CXCL10/IP-10 (BENo, 1.00E2 nM): 0.121 | CXCL11/I-TAC (BENo, 1.00E2 nM): 0.082 | EGFR (BENo, 1.00E2 nM): 0.066 | HLA-DR (BENo, 1.00E2 nM): 0.075 | IL-1alpha (BENo, 1.00E2 nM): 0.078 | Keratin 8/18 (BENo, 1.00E2 nM): 0.033 | MMP-1 (BENo, 1.00E2 nM): 0.055 | MMP-9 (BENo, 1.00E2 nM): 0.015 | PAI-I (BENo, 1.00E2 nM): -0.035 | SRB (BENo, 1.00E2 nM): 0.002 | tPA (BENo, 1.00E2 nM): 0.038 | uPA (BENo, 1.00E2 nM): 0.032 | CCL26/Eotaxin-3 (BENo, 1.00E3 nM): 0.020 | CD54/ICAM-1 (BENo, 1.00E3 nM): -0.011 | CD87/uPAR (BENo, 1.00E3 nM): 0.063 | CXCL8/IL-8 (BENo, 1.00E3 nM): 0.028 | CXCL9/MIG (BENo, 1.00E3 nM): 0.087 | CXCL10/IP-10 (BENo, 1.00E3 nM): 0.136 | CXCL11/I-TAC (BENo, 1.00E3 nM): 0.044 | EGFR (BENo, 1.00E3 nM): 0.034 | HLA-DR (BENo, 1.00E3 nM): 0.115 | IL-1alpha (BENo, 1.00E3 nM): 0.047 | Keratin 8/18 (BENo, 1.00E3 nM): 0.017 | MMP-1 (BENo, 1.00E3 nM): 0.039 | MMP-9 (BENo, 1.00E3 nM): 0.056 | PAI-I (BENo, 1.00E3 nM): -0.090
